{"source": "patent US20210153773A1", "about": "“DEVICE AND METHOD FOR DETECTION AND MONITORING OF COUGH” (priority 2019, published 2021)", "tested_on": "cough reflex", "experiment": "Citric acid spray tussive challenge (cough provocation)", "settings": "50 mg/mL in distilled water, perfume sprayer held about 1 foot from the nose, ~0.07 to 0.10 mL per activation, every subject tested (n=10)", "procedure": "When held at about 1 foot in front of the nose and activated, a fine spray of ˜0.07 to 0.10 mL is released per activation.", "data": [{"smiles": "O=C(O)CC(O)(CC(=O)O)C(=O)O", "note": "[citric acid]", "values": [{"measurement": "number of coughs provoked by inhaled spray", "value": "one to six"}]}]}
